Measured values: ChEMBL document CHEMBL1201862, “PubChem BioAssay data set” (2004)
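Each compound was tested at five concentrations against cells in 96-well plates for 48 hours. GI50 = concentration required for 50% inhibition of growth.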 Active and inactive are the calls of the source. Rule as the data show it: active = GI50 up to about 1.1 µM and inactive = higher.

Experiments:
Assay in all cases: NCI anticancer screen, dose series, 48 h
786-0 = test system: 786-0
A549 = test system: A549
UACC-62 = test system: UACC-62
HOP-92 = test system: HOP-92
RPMI-8226 = test system: RPMI-8226
MDA-N = test system: MDA-N
IGROV-1 = test system: IGROV-1
SK-OV-3 = test system: SK-OV-3
SW-620 = test system: SW-620
NCI-H522 = test system: NCI-H522
MCF7 = test system: MCF7
EKVX = test system: EKVX
MDA-MB-231 = test system: MDA-MB-231
NCI-H23 = test system: NCI-H23
Malme-3M = test system: Malme-3M
NCI-H226 = test system: NCI-H226
K562 = test system: K562
SR = test system: SR

Measured: GI50

OCCNc1ncnc2c1ncn2C1OC(CO)C(O)C1O (stereo not drawn)
inactive: 786-0 > 100 µM | A549 > 100 µM | UACC-62 > 100 µM | HOP-92 51.4 µM | RPMI-8226 85.7 µM | MDA-N > 100 µM | IGROV-1 > 100 µM | SK-OV-3 > 100 µM | SW-620 > 100 µM | NCI-H522 47.3 µM | MCF7 39.4 µM | EKVX > 100 µM | MDA-MB-231 25.5 µM | NCI-H23 > 100 µM | Malme-3M > 100 µM

Nc1ccc2ccc(-c3ccc[nH]3)nc2n1
inactive: 786-0 > 100 µM | A549 > 100 µM | HOP-92 > 100 µM | RPMI-8226 > 100 µM | MDA-N > 100 µM | NCI-H226 > 100 µM | IGROV-1 > 100 µM | SK-OV-3 > 100 µM | SW-620 > 100 µM | NCI-H522 > 100 µM | MCF7 > 100 µM | EKVX > 100 µM | MDA-MB-231 > 100 µM | NCI-H23 > 100 µM | Malme-3M > 100 µM

CSc1nc(Cl)c2c(n1)Sc1nc3ccccc3n1N=C2
inactive: 786-0 28.2 µM | A549 45.2 µM | UACC-62 29.4 µM | HOP-92 18.3 µM | RPMI-8226 21.6 µM | MDA-N 22 µM | K562 21.3 µM | NCI-H226 62.7 µM | IGROV-1 17 µM | SK-OV-3 > 100 µM | SW-620 13.2 µM | NCI-H522 19 µM | MDA-MB-231 23.9 µM | NCI-H23 29.6 µM | Malme-3M 25.8 µM

COC(=O)c1ccccc1C1=C([N+](=O)[O-])C(c2cccc(Br)c2)C(C#N)=C(N)O1 (stereo not drawn)
inactive: 786-0 25.6 µM | A549 > 100 µM | UACC-62 21 µM | HOP-92 21.5 µM | RPMI-8226 23.7 µM | MDA-N 44.6 µM | K562 19.9 µM | NCI-H226 > 100 µM | IGROV-1 27.8 µM | SK-OV-3 > 100 µM | SW-620 25.8 µM | NCI-H522 13.6 µM | EKVX 36.1 µM | MDA-MB-231 73.8 µM | NCI-H23 27.1 µM | SR 18.2 µM

O=C(CC(NC(=O)OCc1ccccc1)C(=O)NC1Cc2ccccc2C1=O)OCc1ccccc1 (stereo not drawn)
inactive: 786-0 > 100 µM | A549 > 100 µM | UACC-62 > 100 µM | RPMI-8226 > 100 µM | MDA-N > 100 µM | K562 > 100 µM | NCI-H226 > 100 µM | IGROV-1 > 100 µM | SK-OV-3 > 100 µM | SW-620 > 100 µM | NCI-H522 > 100 µM | MCF7 > 100 µM | EKVX > 100 µM | NCI-H23 > 100 µM | Malme-3M > 100 µM | SR > 100 µM

Nc1cnc(Nc2cccc3ccccc23)o1
inactive: 786-0 > 10 µM | A549 > 10 µM | UACC-62 > 10 µM | MDA-N > 10 µM | K562 > 10 µM | NCI-H226 > 10 µM | IGROV-1 > 10 µM | SK-OV-3 > 10 µM | SW-620 > 10 µM | NCI-H522 > 10 µM | MCF7 > 10 µM | EKVX > 10 µM | MDA-MB-231 > 10 µM | NCI-H23 > 10 µM | Malme-3M > 10 µM

O=c1[nH]nc(-c2ccccc2)n1/N=C/c1ccncc1
inactive: 786-0 > 100 µM | A549 > 100 µM | UACC-62 > 100 µM | HOP-92 > 100 µM | RPMI-8226 > 100 µM | MDA-N > 100 µM | K562 > 100 µM | NCI-H226 97.7 µM | IGROV-1 > 100 µM | SW-620 > 100 µM | NCI-H522 > 100 µM | MCF7 > 100 µM | EKVX > 100 µM | NCI-H23 > 100 µM | Malme-3M > 100 µM | SR 74.1 µM
